Literature values as cited in US12533314B2, “Low sodium oxybate once nightly composition” (Tris Pharma, Inc., priority 2023, dated 2026).

Conditions: in vivo

O=C(O)CCCO [Oxybate, Gamma-hydroxybutyrate]
plasma half-life: 30 to 45 min
